In US9938316B2, “Selective inhibitors of α2 isoform of Na,K-ATPase and use thereof for reduction of intra-ocular pressure and as cardiotonic agents” (priority 2013, dated 2018):
“And” between values parts separate entries of the source, which are not always exact repeats. Identical values can stand only once.

Tests used:
[1] = test system: Na,K-ATPase α2β1 isoform complex; assay: biochemical; assay type: biochemical, human; settings: for Selectivity ratio Ki α1/α2 ± S.E.: Kiα1β1/Kiα2β1
Protocol: (§1) Methods for transformation, culture of P. pastoris clones, protein expression of Na,K-ATPase human isoforms (α1β1, α2β1, α3β1), membrane preparation, solubilization of membranes in DDM, and purification on BD-Talon beads have been described in detail (6-9, 11, 25). In initial experiments the three purified isoform complexes (0.3-0.5 mg/ml) were eluted from the BD-Talon beads in a solution containing Imidazole 170 mM, NaCl 100 mM; Tricine.HCl 20 mM pH 7.4; C12E8, 0.1 mg/ml; SOPS 0.07 mg/ml cholesterol 0.01 mg/ml, glycerol 25%. In later experiments the isoforms complexes were reconstituted with purified FXYD1 on the BD-Talon beads together as described in detail in (10, 11) prior to elution of α1β1FXYD1, α2β1FXYD1 and α3β1FXYD1 complexes. The proteins were stored at −80° C. Protein concentration was determined with BCA (B9643 Sigma).
(§2) Inhibition of Na,K-ATPase activity of the detergent-soluble α1β1, α2β1, and α3β1 complexes by CG's was determined as described (6) using either the αβ or αβFXYD1 complexes. […] The K0.5K was estimated by varying K concentration in a medium containing a fixed total K+choline chloride of 60 mM, and constant NaCl of 140 mM. Curves were fitted to the Hill function v=Vmax*[S]^n/([S]^n+K^n), where S is the K concentration, n is the Hill coefficient and K^n is K0.5K. For comparison of different curves the ratio v/Vmax for each curve was calculated and replotted. In experiments to assess inhibition of Na,K-ATPase activity by cardiac glycosides of the present invention, the percent inhibition VCG/V0 was calculated and Ki values were obtained by fitting the data to the function VCG/V0=Ki/([CG]+Ki)+ c. Inhibition was estimated in 3-8 separate experiments and average Ki values ±SEM were calculated. Significance of differences between Kiα1 and Kiα2 was calculated by the unpaired Student's t-test (p values). […] P values <0.05 were considered significant.

[2] = target: T1, Na,K-ATPase α2β1 isoform complex (Homo sapiens, UniProt P50993); assay: biochemical; assay type: biochemical; settings: Ki ± S.E. α2, Table 2; α2β1
Protocol: as §1, §2

[3] = test system: cornea of rabbits; assay: Pachymetry: corneal thickness and local toxicity after topical cardiac glycosides; assay type: in vivo, New Zealand white rabbits; settings: for Corneal thickness: 0.5 mM; for Corneal thickness (in words): over 4 hours, Digoxin 1 mM, DGlyN 0.5 mM, DMe 0.5 mM, ouabain 1 mM; for Corneal thickness (in words) / Redness or local irritation in conjunctiva or cornea: after 4AP; for Redness or local irritation in conjunctiva or cornea: topical
Protocol: Thus, in this study, no change in corneal thickness was detected (Table 3), indicative of lack of local toxic effects. […] Similar results were obtained with CG's applied after IB-MECA.
IOP (mm Hg) of rabbits was measured using a calibrated Pneumatonometer (Model 30, Reichert technologies, FIG. 1). A local anesthetic Oxybuprocaine HCl (0.4%, 25 μl) was applied to each cornea about a minute before IOP measurements. Two baseline IOP readings were taken before topical administration of the CG (or PBS as control) and after half an hour (Zero time). […] At zero time one drop of 4AP (40 mg/ml, 30 μl) or IB-MECA (1 μM, 30 μl) was administered to both eyes of each rabbit IOP measurements were made at different times as indicated in each experiment. In the experiments for which the IOP was elevated for several hours, 4AP was added every 1.5 hours or IB-MECA every 2 hours. […] Each experiment was repeated two or three times with similar results. In all cases the figures depict the average effect on IOP (i.e for four or six eyes) compared to control ±SEM. Where error bars are not seen in the figures, the errors are smaller than the symbols used. Significance of differences from the control was calculated by the unpaired Students t-test (p values), p values <0.05 were considered significant. Corneal thickness (μm) was measured using an ultrasonic pachymeter (Sonogage pachometer, Cleveland, USA), before and during the experiment with CG and 4AP treatments. The values represent averages of three independent measurements for each eye.

[4] = test system: intra-ocular pressure (IOP) of rabbits; assay: 4-aminopyridine (4AP)-induced ocular hypertension in rabbits; assay type: in vivo, New Zealand white rabbits; settings: for Time IOP is maintained at the low level: 1 mM; for Time IOP is maintained at the low level / Time IOP is held at the low level: single drop; for Order of relative effects on IOP: all at 0.1 mM, 1.5 hours after 4AP, average of three experiments
[5] = target: T1, Na,K-ATPase α2β1 isoform complex; assay: biochemical; assay type: biochemical; design: made in house; host or cells: Pichia pastoris SMD1165; settings: Ki, nM ± SEM α2β1, Table 6
Protocol: as §1, §2

Compound	Selectivity ratio Ki α1/α2 ± S.E. [1]	Ki [2]	Corneal thickness ([3]; left eye, 0 h)	Corneal thickness ([3]; left eye, 2 h)	Corneal thickness ([3]; left eye, 4 h)	Corneal thickness ([3]; right eye, 0 h)	Corneal thickness ([3]; right eye, 2 h)	Corneal thickness ([3]; right eye, 4 h)	Corneal thickness (in words) [3]	Redness or local irritation in conjunctiva or cornea [3]	Time IOP is maintained at the low level ([4]; 4AP every two hours)	Order of relative effects on IOP [4]	Wash-out time/rate compared with other cardiac glycosides ([4]; equal concentrations, 4AP every two hours)	Ki [5]	Selectivity α1β1/α2/β1 ([1]; ratio of Ki, Table 6)	Time IOP is held at the low level ([4]; 0.2 mM, 4AP every two hours)	Time IOP is held at the low level ([4]; 0.5 mM, 4AP every two hours)	Time IOP is held at the low level ([4]; 2 mM, 4AP every two hours)
CC1CN(CC(N)=O)CCC(OC2C(O)CC(OC3C(O)CC(OC4CCC5(C)C(CCC6C5CC(O)C5(C)C(C7=CC(=O)OC7)CCC65O)C4)OC3C)OC2C)O1 (stereo not drawn) [DGlyN]	7.45±0.46 and 7.45	20.4 ± 1 nM	498 microns	462 microns	455 microns	496 microns	476 microns	454 microns	not significantly affected	neither redness nor local irritation were observed	3.5 h	DGlyN≈DMe≈digoxigenin>digoxin>ouabain	slightly faster than for DMe	–	–	–	–	–
CC1CN(C)CCC(OC2C(O)CC(OC3C(O)CC(OC4CCC5(C)C(CCC6C5CC(O)C5(C)C(C7=CC(=O)OC7)CCC65O)C4)OC3C)OC2C)O1 (stereo not drawn) [DMe]	6.47±0.71	15.6 ± 2.3 nM	465 microns	440 microns	453 microns	507 microns	476 microns	498 microns	not significantly affected	neither redness nor local irritation were observed	about 5.5 hours	DGlyN≈DMe≈digoxigenin>digoxin>ouabain	–	15.3 ± 1.2 nM	6.7	2.5 h	4.5 h	5.8 h
